Experiments:
J-Lat cells = experiment: J-Lat cell viability (Aqua blue, flow cytometry)
[1] = tested on: HIV transcription in J-Lat cells; experiment: qPCR of HIV RNAs (Gag, 3'-LTR) in J-Lat cells; type: cell-based; conditions: for HIV mRNAs (Gag and 3'-LTR RNA levels): PMA-activated J-Lat, 24 hours after treatment
[2] = tested on: HIV in BRD4-KO J-Lat cells; type: cell-based
ELL2 = ELL2 protein (WB) and mRNA (Q-PCR) in J-Lat cells; type: cell-based; conditions: vs PMA alone, WT J-Lat, 24 hours
Description: (§1) Target protein expression in WT and BRD4-KO J-Lat cells (10.6 full length) were measured by western blotting. […] The cells were harvested, washed and then lysed in NP-40 cell lysis buffer (containing 20 mM Tris-HCl, […] of NaCl, 0.2 mM EDTA, 1% NP40, protease inhibitor cocktail, and 1 mM PMSF) by rotation at RT for 1 hour. Cell lysates were centrifuged at 4° C. and the supernatants were collected, followed by measurement of total protein concentration in the supernatants by using Microplate BCA Protein Assay Kit. 20 μg proteins were separated using SDS-PAGE gel and then transferred to Immuno-Blot PVDF Membrane. The membrane was blocked (5% skimmed milk powder in TBST) and then incubated with individual protein-specific antibodies (CDK9, Cyclin T1, Cyclin T2, ELL2, p-RNA Pol II-CTD (Ser2), BRD2, BRD4, NF-κB, or cellular GAPDH) for overnight at 4° C. After washing three times in TBST, the membrane was incubated with anti-rabbit or anti-mouse IgG-HRP, depending on the primary antibody used. The membrane was incubated in Super Signal West Pico Chemiluminescent Substrate. Molecular weights of target proteins were assessed by comparing with markers.

BRD4 BD1 domain = BRD4 BD1 domain (Homo sapiens, UniProt O60885); experiment: TR-FRET binding assay, BRD4 BD1
[3] = tested on: non-specific cellular proteins; experiment: Binding to a broader panel of non-specific cellular proteins
HIV in human PBMCs = experiment: qPCR of HIV DNA and Gag RNA in in vitro infected PBMCs; type: cell-based; conditions: PHA-activated PBMCs, 4 μM
[4] = tested on: HIV transcription in PBMC of HIV-infected subjects; experiment: Ex vivo HIV Gag RNA in PBMCs of viremic HIV-infected subjects (RV21); type: cell-based; conditions: 2 days
[5] = tested on: HIV LTR chromatin in J-Lat cells; experiment: High-resolution MNase nucleosomal mapping of HIV LTR; type: cell-based; conditions: 10 μM 24 hours, then PMA 24 hours, vs NC
CDK9 binding to BRD4 = CDK9 binding to BRD4 (Homo sapiens, UniProt O60885); experiment: BRD4 Co-IP, CDK9 binding, J-Lat cells; type: cell-based; conditions: vs PMA alone, 24 hours
Tat at HIV 5'-LTR = experiment: CHIP-qPCR, Tat recruitment to HIV promoter; type: cell-based; conditions: J-Lat, 10 μM, 24 hours
Description: ChIP assay was performed using a ChIP-IT Express Kit (Active Modify, USA) according to the manufacturer's instructions. […] Cells were harvested and washed. Cell pellets were re-suspended in 10 ml PBS buffer and fixed with 37% formaldehyde to cross-link DNA and proteins. The fixation reaction was stopped by adding 1.1 ml of 10× Glycine for 5 min at RT. Cells were centrifuged and the supernatants were removed, followed by re-suspension of cells in ice-cold Lysis Buffer on ice for 30 min. Cells were centrifuged at 5,000 rpm for 10 min to pellet the nuclei. Nuclei pellets were re-suspended in 700 μl shearing buffer plus 3.2 μl of PIC and 3.2 μl of PMSF, and were then sonicated using the determined conditions. Sheared chromatin samples were used to set up ChIP reactions by adding the magnetic beads and 5 μg of anti-Tat (1 mg/ml, Thermo Fisher, MA1-71509) or control mouse IgG (2.5 mg/ml, Cell Signaling, #5415) antibody (overnight rotation at 4° C.). After several times of washing by ChIP buffers 2, the chromatin was reverse cross-linked and treated with proteinase K. The eluted DNA were cleaned up with phenol-chloroform and used in real time-PCR. The results were analyzed by the fold enrichment method with the formula % enrichment=2−(CT IP−CT mock).

[6] = tested on: HIV (US-1 strain) in human CD4 T cells; type: cell-based; conditions: for HIV infection in activated CD4 T cells (intracellular p24): 0-8 μM, three days after viral exposure
RV254 PBMCs = experiment: Viability of RV254 PBMCs; type: cell-based, human; conditions: vs ART alone or NC
CDK9 binding to Tat = experiment: Tat Co-IP, CDK9 binding, J-Lat cells; type: cell-based; conditions: vs PMA alone, 24 hours
Description: Treated J-Lat cells were harvested, washed and lysed in 1 ml NP-40 cell lysis buffer as described above in western blotting. The lysate was cleared by centrifugation and the supernatant was collected. Protein concentration in collected supernatant was measured (Microplate BCA Protein Assay Kit). Equal amounts of proteins from different treatments were incubated with […] of anti-Tat (Thermo Fisher, Cat. No. MA1-71509) or anti-BRD4 (Thermo Fisher, Cat. No. 730037) antibody or normal mouse IgG (Cell Signaling, Cat. No. 5415) for overnight at 4° C. The immune complexes were precipitated by 50 μl protein G-conjugated magnetic beads (Thermo Fisher, Cat. No. 10003D). Beads were washed 6 times using cold NP-40 cell lysis buffer and then subjected to SDS-PAGE electrophoresis. The membranes were immunoblotted with anti-CDK9 primary antibody, followed by incubation with HRP-conjugated secondary antibody.

human PBMCs = type: cell-based
[7] = target: T1, non-BET bromodomain protein CBP (Homo sapiens, UniProt Q92793); experiment: TR-FRET binding assay, CBP
T1 construct: purchased Cayman Chemical
Description: A series of concentrations of the compound from 0.01 nM to 100 μM were added into a 384 well test plate and mixed with other reaction components based on the instructions from vendor followed by incubation 1 h at room temperature. […] The plates were read in time-resolved format by exciting the sample at 340 nm and reading emissions at 620 and 670 nm, using a 100 μs delay and a 500 μs window at a Tecan M1000 pro reader.

BRD4 at HIV 5'-LTR = experiment: CHIP-qPCR, BRD4 binding to HIV promoter; type: cell-based; conditions: activated and resting J-Lat, vs no compound control
[8] = tested on: HIV particles from RV21 PBMC; experiment: HIV particles in culture supernatants, reporter TZM-bl assay; type: cell-based; conditions: vs no treatment control
Excerpt: We next assessed assess the HIV-suppressive activity of ZL0580 ex vivo. RV21 is ART naïve, chronic HIV infection established by US MHRP and use of PBMC samples from this cohort in our group has been previously published (25). PBMC from RV21 subjects (n=8) were stimulated with PHA to induce HIV transcriptional activation in the absence (0 Mm) or presence of ZL0580 ([…]).

[9] = tested on: HIV in unactivated human CD4 T cells; experiment: HIV in un-activated (resting) CD4 T cells (intracellular p24); type: cell-based; conditions: 2 μM and 4 μM, Day 6
Description: We also evaluated the impact of ZL0580 on HIV in un-activated (resting) CD4 T cells. Normal PBMCs were not stimulated but directly infected with HIV by spinoculation. 24 hours after HIV infection, cells were extensively washed and treated with ZL0580 (2 μM and 4 μM) or not (NC). As expected, compared to activated cells, HIV replication kinetics in un-activated CD4 T cells is slower.

RNAPII = experiment: Western blot of phosphorylated RNAPII (Ser 2 CTD) in J-Lat cells; type: cell-based; conditions: vs PMA alone
Description: as §1

[10] = tested on: PMA-induced HIV activation in J-Lat cells (10.6); experiment: HIV-suppression model, PMA-stimulated J-Lat cells (GFP, flow cytometry); type: cell-based; conditions: 24 hours; for effect on PMA-induced HIV activation (GFP+%): PMA + compound 10 μM
BRD4 BD2 = BRD4 BD2 (Homo sapiens, UniProt O60885); experiment: TR-FRET binding assay, BRD4 BD2
[11] = tested on: latent HIV in J-Lat cells (10.6); experiment: HIV-activation screening in J-Lat cells (GFP, flow cytometry); type: cell-based; conditions: compound alone, 10 μM, 24 hours
[12] = tested on: BD1 and BD2 of BET proteins (BRD4, BRD2, BRD3, BRDT); experiment: TR-FRET binding to BD1 and BD2 of BET proteins
Excerpt: Details are available in the Supplementary Methods.

T1 sequence (Q92793 1085-1192 limits assumed): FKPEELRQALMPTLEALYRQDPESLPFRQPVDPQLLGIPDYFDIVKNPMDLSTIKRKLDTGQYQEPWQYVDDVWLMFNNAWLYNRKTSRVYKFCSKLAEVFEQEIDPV

## O=C(Nc1ccc(C(F)(F)F)cc1)Nc1ccc(S(=O)(=O)N2CCCC2C(=O)Nc2ccccc2)cc1 (stereo in doubt) [ZL0580, (R)—N-Phenyl-1-((4-(3-(4-(trifluoromethyl)phenyl)ureido)phenyl)sulfonyl)pyrrolidine-2-carboxamide]
J-Lat cells; 0-80 μM, 1 & 3 days
  concentrations without significant cell death: below 40 μM
J-Lat cells; 10 μM, Day 2, 7 and 14, PMA-activated and un-stimulated
  cell death vs NC: did not cause significant cell death
[1]
  HIV mRNAs (Gag and 3'-LTR RNA levels): reduces both Gag and 3′-LTR RNA levels
[1]; resting J-Lat, single dose 10 μM for 3 days, then SAHA or Prostratin
  HIV reactivation by LRAs after pre-treatment: renders J-Lat cells more resistant to HIV reactivation by SAHA or Prostratin
[1]; single treatment 10 μM, PMA-activated or resting, Day 2, 7, 14
  kinetics of HIV transcription (3'-LTR RNA): suppresses both PMA-stimulated and basal HIV transcription through Day 14 after treatment
[2]
  Gag and 3'-LTR RNA expression, vector control cells: substantially inhibit Gag and 3′-LTR RNA expression
  HIV suppression (GFP) in BRD4-KO cells: failed to induce HIV suppression in BRD4-KO cells
  HIV suppression in BRD4-KO cells with exogenous BRD4 expression: restored to large extent the ability of ZL0580 to suppress HIV in these cells
  inhibition of Gag and 3'-LTR RNA, BRD4-KO cells: largely abrogated in the BRD4-KO cells
ELL2
  ELL2 protein: substantially reduced ELL2 protein
BRD4 BD1 domain
  IC50: 163 nM
[3]
  binding activity to non-specific cellular proteins: no or weak binding activity
HIV in human PBMCs
  HIV transcription (Gag RNA) in PBMCs: reduced HIV transcription in PBMCs
  cell-associated HIV DNA: did not significantly alter HIV DNA levels
[4]; PHA-stimulated RV21 PBMC (n=8)
  HIV Gag mRNA ex vivo: suppress HIV transcription ex vivo in all eight PBMC samples
[4]; PHA-stimulated RV21 PBMC
  reduction of RNA levels in some subjects: greater than 10 fold
[5]
  nucleosomal DNA protection in HIV LTR: enhanced nucleosomal DNA protection in the majority of amplicon regions (6-20)
CDK9 binding to BRD4
  CDK9 binding to BRD4: enhanced CDK9 binding to BRD4
Tat at HIV 5'-LTR
  recruitment of Tat to HIV promoter: reduced Tat recruitment to HIV promoter
[6]
  HIV infection in activated CD4 T cells (intracellular p24): suppress HIV in activated human CD4 T cells in a dose-dependent manner
[6]; single treatment 8 μM
  productive HIV infection in CD4 T cells: almost complete loss of productive HIV infection in CD4 T cells
RV254 PBMCs
  toxicity to RV254 PBMCs: did not cause significant toxicity to these cells
CDK9 binding to Tat
  CDK9 binding to Tat: reduced CDK9 binding to Tat
Human PBMCs; 0-80 μM
  concentrations without significant PBMC death: below 40 μM
Human PBMCs; 8 μM vs NC, PHA-activated, 3 days
  PBMC viability: comparable between NC and ZL0580 treatment
[7]
  IC50: > 10000 nM
BRD4 at HIV 5'-LTR
  BRD4 binding to HIV promoter: promoted BRD4 binding to HIV promoter
[8]
  production of HIV particles in cell culture supernatants: significantly reduced
[9]
  HIV in unactivated CD4 T cells (p24+%): dose-dependently suppresses HIV in unactivated CD4 T cells
RNAPII
  RNAPII activation (phosphorylation of CTD Ser2): reduced RNAII activation
[10]; PMA + 0, 1, 10, 20 μM
  dose dependence of suppression of PMA-induced HIV activation: suppresses PMA-induced HIV activation in dose-dependent manner
[10]
  effect on PMA-induced HIV activation (GFP+%): suppresses PMA-induced HIV activation
BRD4 BD2
  IC50: 1070 nM

## Cc1sc2c(c1C)C(c1ccc(Cl)cc1)=N[C@@H](CC(=O)OC(C)(C)C)c1nnc(C)n1-2 [JQ1, reference compound]
[1]
  HIV mRNAs (Gag and 3'-LTR RNA levels): enhances their levels
ELL2
  ELL2 protein: increased its level
[5]
  nucleosomal DNA protection in HIV LTR: reduced nucleosomal DNA protection in several amplicon regions
Tat at HIV 5'-LTR
  recruitment of Tat to HIV promoter: enhanced binding of Tat to HIV promoter
CDK9 binding to Tat
  CDK9 binding to Tat: enhanced CDK9 binding to Tat
BRD4 at HIV 5'-LTR
  BRD4 binding to HIV promoter: reduced this binding
RNAPII
  RNAPII activation (phosphorylation of CTD Ser2): potentiated its activation
[11]
  activation of latent HIV (GFP expression): activates HIV
[10]
  effect on PMA-induced HIV activation (GFP+%): synergistically enhances PMA-stimulated HIV activation
[12]
  binding to BD1 and BD2 of BET proteins: non-selectively binds to both BD1 and BD2 all four BET proteins

## Cc1cc(N=Nc2ccc(S(=O)(=O)NC3CCCC3)cc2)c(N)cc1O [ZL0454]
[6]
  HIV infection in activated CD4 T cells (intracellular p24): did not suppress HIV in CD4 T cells
[11]
  activation of latent HIV (GFP expression): modestly activate HIV
[10]
  effect on PMA-induced HIV activation (GFP+%): synergistically enhanced PMA-induced HIV activation

## COC(=O)[C@@H]1CCCN1S(=O)(=O)c1ccc(NC(=O)Nc2cccc(C(F)(F)F)c2)cc1 [ZL0506]
[10]
  effect on PMA-induced HIV activation (GFP+%): modestly suppress HIV
